Data as given in patent US20240317735A1, “HYDROISOQUINOLINE OR HYDRONAPHTHYRIDINE COMPOUNDS FOR THE TREATMENT OF AUTOIMMUNE DISEASE” (Hoffmann-La Roche Inc., priority 2020, published 2024).

Target: T1, TLR9 (Homo sapiens, UniProt Q9NR96)
T1 sequence (Q9NR96 26-1032): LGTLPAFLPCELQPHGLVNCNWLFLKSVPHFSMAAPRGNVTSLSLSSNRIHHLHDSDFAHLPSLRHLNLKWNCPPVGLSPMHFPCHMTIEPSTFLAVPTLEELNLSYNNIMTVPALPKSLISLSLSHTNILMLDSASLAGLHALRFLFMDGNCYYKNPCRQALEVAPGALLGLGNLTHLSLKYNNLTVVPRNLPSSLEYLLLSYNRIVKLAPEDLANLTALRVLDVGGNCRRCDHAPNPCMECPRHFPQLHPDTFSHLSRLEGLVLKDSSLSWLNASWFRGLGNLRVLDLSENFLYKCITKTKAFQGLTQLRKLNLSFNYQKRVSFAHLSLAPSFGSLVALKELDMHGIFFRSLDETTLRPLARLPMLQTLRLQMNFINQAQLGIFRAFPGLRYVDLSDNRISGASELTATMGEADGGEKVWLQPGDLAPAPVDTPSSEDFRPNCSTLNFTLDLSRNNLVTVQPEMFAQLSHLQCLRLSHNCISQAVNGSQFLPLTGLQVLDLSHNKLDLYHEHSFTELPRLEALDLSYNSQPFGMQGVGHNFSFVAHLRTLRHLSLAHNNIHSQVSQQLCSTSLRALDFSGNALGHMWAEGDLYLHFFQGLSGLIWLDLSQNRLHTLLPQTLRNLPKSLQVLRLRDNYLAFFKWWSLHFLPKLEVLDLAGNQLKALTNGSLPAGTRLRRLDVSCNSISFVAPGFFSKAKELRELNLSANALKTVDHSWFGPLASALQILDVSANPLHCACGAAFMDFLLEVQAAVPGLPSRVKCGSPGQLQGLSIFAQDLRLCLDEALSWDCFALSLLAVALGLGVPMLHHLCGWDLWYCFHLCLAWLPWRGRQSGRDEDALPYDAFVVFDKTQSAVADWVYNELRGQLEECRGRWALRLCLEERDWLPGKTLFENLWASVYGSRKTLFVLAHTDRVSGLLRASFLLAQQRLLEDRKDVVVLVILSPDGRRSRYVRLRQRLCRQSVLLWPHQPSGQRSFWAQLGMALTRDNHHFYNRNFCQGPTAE
Test: HEK293-Blue-hTLR-9 cells assay (SEAP reporter, ODN2006 stimulation)
Assay type: cell-based
Design: host or cells: HEK293 (HEK-Blue hTLR9)
Conditions: HEK293-Blue-hTLR9 cells, ODN2006, 20 hrs; read-out: HEK/hTLR9 IC50
Protocol: The following tests were carried out in order to determine the activity of the compounds of formula (I) and (Ia) in HEK293-Blue-hTLR-7/8/9 cells assay.
A stable HEK293-Blue-hTLR-9 cell line was purchased from InvivoGen (Cat. #: hkb-htlr9, San Diego, California, USA). These cells were originally designed for studying the stimulation of human TLR9 by monitoring the activation of NF-κB. A SEAP (secreted embryonic alkaline phosphatase) reporter gene was placed under the control of the IFN-β minimal promoter fused to five NF-κB and AP-1-binding sites. The SEAP was induced by activating NF-κB and AP-1 via stimulating HEK-Blue hTLR9 cells with TLR9 ligands. Therefore the reporter expression was declined by TLR9 antagonist under the stimulation of a ligand, such as ODN2006 (Cat. #: tlrl-2006-1, Invivogen, San Diego, California, USA), for incubation of 20 hrs. The cell culture supernatant SEAP reporter activity was determined using QUANTI-Blue™ kit (Cat. #: rep-qb1, Invivogen, San Diego, California, USA) at a wavelength of 640 nm, a detection medium that turns purple or blue in the presence of alkaline phosphatase.
HEK293-Blue-hTLR9 cells were incubated at a density of 250,000-450,000 cells/mL in a volume of 170 μL in a 96-well plate in Dulbecco's Modified Eagle's medium (DMEM) containing 4.5 g/L glucose, 50 U/mL penicillin, […], […], 2 mM L-glutamine, 10% (v/v) heat-inactivated fetal bovine serum with addition of 20 μL test compound in a serial dilution in the presence of final DMSO at 1% and 10 μL of 20 uM ODN2006 in above DMEM, perform incubation under 37° C. in a CO2 incubator for 20 hrs. Then 20 μL of the supernatant from each well was incubated with 180 μL Quanti-blue substrate solution at 37° C. for 2 h and the absorbance was read at 620˜655 nm using a spectrophotometer.
The signaling pathway that TLR9 activation leads to downstream NF-κB activation has been widely accepted, and therefore similar reporter assay was modified for evaluating TLR9 antagonist.

IC50 [nM]	Compound
58	C[C@H]1CN(c2ccnc3c2cnn3C)Cc2ccc(N3CCC(N4CCNCC4)CC3)cc21 [Example 10, (4R)-4-methyl-2-(1-methylpyrazolo[3,4-b]pyridin-4-yl)-6-(4-piperazin-1-yl-1-piperidyl)-3,4-dihydro-1H-isoquinoline]
199	C[C@H]1CN(c2ccnc3c2cnn3C)Cc2ccc(N3CCNC(CO)C3)cc21 (stereo partly drawn) [Example 49, [4-[(4R)-4-methyl-2-(1-methylpyrazolo[3,4-b]pyridin-4-yl)-3,4-dihydro-1H-isoquinolin-6-yl]piperazin-2-yl]methanol]
47	C[C@H]1CN(c2ccnc3c2cnn3C)Cc2ccc(OC3CN(C4CCNCC4)C3)cc21 [Example 41, (4R)-4-methyl-2-(1-methylpyrazolo[3,4-b]pyridin-4-yl)-6-[1-(4-piperidyl)azetidin-3-yl]oxy-3,4-dihydro-1H-isoquinoline]
326	C[C@H]1CN(c2ccnc3c2cnn3C)Cc2ccc(N3CCN(S(=O)(=O)C4CCNC4)CC3)cc21 (stereo partly drawn) [Example 33, (4R)-4-methyl-2-(1-methylpyrazolo[3,4-b]pyridin-4-yl)-6-(4-pyrrolidin-3-ylsulfonylpiperazin-1-yl)-3,4-dihydro-1H-isoquinoline]
86	Cc1cc(N2Cc3ccc(N4CCNCC4)cc3[C@@H](C)C2)c2cnn(C)c2n1 [Example 2, (4R)-2-(1,6-dimethylpyrazolo[3,4-b]pyridin-4-yl)-4-methyl-6-piperazin-1-yl-3,4-dihydro-1H-isoquinoline]
182	C[C@H]1CN(c2ccnc3c2cnn3C)Cc2ccc(N3CC4(CCNC4)OC3=O)cc21 (stereo partly drawn) [Example 35, 3-[(4R)-4-methyl-2-(1-methylpyrazolo[3,4-b]pyridin-4-yl)-3,4-dihydro-1H-isoquinolin-6-yl]-1-oxa-3,7-diazaspiro[4.4]nonan-2-one]
165	Cc1cc(N2Cc3cnc(N4CCNCC4)cc3[C@@H](C)C2)c2cnn(C)c2n1 [Example 74, (4R)-2-(1,6-dimethylpyrazolo[3,4-b]pyridin-4-yl)-4-methyl-6-piperazin-1-yl-3,4-dihydro-1H-2,7-naphthyridine]
334	C[C@H]1CN(c2ccnc3c2cnn3C)Cc2ccc(N3C[C@]4(CCNC4)CC3=O)cc21 (single isomer, unassigned) [Example 54]
412	CCn1ncc2c(N3Cc4ccc(N5CCNCC5)cc4[C@@H](C)C3)ccnc21 [Example 22, (4R)-2-(1-ethylpyrazolo[3,4-b]pyridin-4-yl)-4-methyl-6-piperazin-1-yl-3,4-dihydro-1H-isoquinoline]
104	C[C@H]1CN(c2ccnc3c2cnn3C)Cc2ccc(N3CCN(C(=O)C4CCNCC4)CC3)cc21 [Example 7, 4-piperidyl-[4-[(4R)-4-methyl-2-(1-methylpyrazolo[3,4-b]pyridin-4-yl)-3,4-dihydro-1H-isoquinolin-6-yl]piperazin-1-yl]methanone]
117	C[C@H]1CN(c2ccnc3c2cnn3C)Cc2ccc(N3CCN(c4cc5c(cn4)CCNC5)CC3)cc21 [Example 9, 7-[4-[(4R)-4-methyl-2-(1-methylpyrazolo[3,4-b]pyridin-4-yl)-3,4-dihydro-1H-isoquinolin-6-yl]piperazin-1-yl]-1,2,3,4-tetrahydro-2,6-naphthyridine]
372	C[C@H]1CN(c2ccnc3c2cnn3C)Cc2ccc(N3CC4(CNCCO4)C3)cc21 [Example 21, 2-[(4R)-4-methyl-2-(1-methylpyrazolo[3,4-b]pyridin-4-yl)-3,4-dihydro-1H-isoquinolin-6-yl]-5-oxa-2,8-diazaspiro[3.5]nonane]
311	C[C@H]1CN(c2ccnc3c2cnn3C)Cc2ccc(N3C[C@H]4CNCCN4C3=O)cc21 [Example 24, (8aR)-2-[(4R)-4-methyl-2-(1-methylpyrazolo[3,4-b]pyridin-4-yl)-3,4-dihydro-1H-isoquinolin-6-yl]-1,5,6,7,8,8a-hexahydroimidazo[1,5-a]pyrazin-3-one]

The next lines start with the molecule.

Compound	IC50 [nM]
C[C@H]1CN(c2ccnc3c2cnn3C)Cc2ccc(N3CCNCC3)nc21 [Example 62, (8S)-8-methyl-6-(1-methylpyrazolo[3,4-b]pyridin-4-yl)-2-piperazin-1-yl-7,8-dihydro-5H-1,6-naphthyridine]	264
Cc1cc(N2Cc3ccc(N4CCC(N(C)C)CC4)nc3[C@@H](C)C2)c2cnn(C)c2n1 [Example 60, N,N-dimethyl-1-[(8S)-6-(1,6-dimethylpyrazolo[3,4-b]pyridin-4-yl)-8-methyl-7,8-dihydro-5H-1,6-naphthyridin-2-yl]piperidin-4-amine]	104
Cc1cc(N2Cc3ccc(N4C[C@@H](N)[C@H](O)C4)cc3[C@@H](C)C2)c2cnn(C)c2n1 [Example 47, trans-4-amino-1-[(4R)-2-(1,6-dimethylpyrazolo[3,4-b]pyridin-4-yl)-4-methyl-3,4-dihydro-1H-isoquinolin-6-yl]pyrrolidin-3-ol]	230
C[C@H]1CN(c2ccnc3c2cnn3C)Cc2ccc(N3C4CCC3CNC4)cc21 [Example 27, (4R)-6-(3,8-diazabicyclo[3.2.1]octan-8-yl)-4-methyl-2-(1-methylpyrazolo[3,4-b]pyridin-4-yl)-3,4-dihydro-1H-isoquinoline]	185
Cc1cc(N2Cc3cnc(N4CC[C@@H](N)[C@H](F)C4)cc3[C@@H](C)C2)c2cnn(C)c2n1 [Example 80, (3R,4R)-3-fluoro-1-[(5R)-7-(1,6-dimethylpyrazolo[3,4-b]pyridin-4-yl)-5-methyl-6,8-dihydro-5H-2,7-naphthyridin-3-yl]piperidin-4-amine]	73
Cc1cc(N2Cc3cnc(N4CC5(CNCCO5)C4)cc3[C@@H](C)C2)c2cnn(C)c2n1 [Example 79, 2-[(5R)-7-(1,6-dimethylpyrazolo[3,4-b]pyridin-4-yl)-5-methyl-6,8-dihydro-5H-2,7-naphthyridin-3-yl]-5-oxa-2,8-diazaspiro[3.5]nonane]	131
COC[C@H]1CN(c2cc3c(cn2)CN(c2cc(C)nc4c2cnn4C)C[C@@H]3C)CCN1 [Example 81, (4R)-2-(1,6-dimethylpyrazolo[3,4-b]pyridin-4-yl)-4-methyl-6-[(3R)-3-(methoxymethyl)piperazin-1-yl]-3,4-dihydro-1H-2,7-naphthyridine]	218
CO[C@H]1CN(c2cc3c(cn2)CN(c2cc(C)nc4c2cnn4C)C[C@@H]3C)CC[C@@H]1N [Example 73, (3S,4S)-3-methoxy-1-[(5R)-7-(1,6-dimethylpyrazolo[3,4-b]pyridin-4-yl)-5-methyl-6,8-dihydro-5H-2,7-naphthyridin-3-yl]piperidin-4-amine]	115
Cn1ncc2c(N3CCc4cc(N5CCNCC5)ccc4C3)ccnc21 [Example 3, 2-(1-methylpyrazolo[3,4-b]pyridin-4-yl)-6-piperazin-1-yl-3,4-dihydro-1H-isoquinoline]	185
Cc1cc(N2Cc3ccc(N4C[C@@H](F)[C@@H](N)C4)nc3[C@@H](C)C2)c2cnn(C)c2n1 [Example 69, (3S,4R)-4-fluoro-1-[(8S)-6-(1,6-dimethylpyrazolo[3,4-b]pyridin-4-yl)-8-methyl-7,8-dihydro-5H-1,6-naphthyridin-2-yl]pyrrolidin-3-amine]	488
